Test results from patent US20120041185A1, “dTDP-BETA-D-FUCOFURANOSE, ITS PREPARATION METHOD AND USE” (TIANJIN BIOCHIP TECHNOLOGY CORPORATION, priority 2007, published 2012).

Legend:
[1] = system: Fcf1 (recombinant dTDP-D-GIcO reductase); assay: Divalent cation requirements of Fcf1 (effects of cations on enzyme activity); assay type: biochemical, E. coli O52; details: for Transformation rate (%): in the presence of 5 mM divalent ion chloride, 100 without ion; for influence on conversion ratio / inhibition to enzyme activity: 5 mM divalent ion chloride
Procedure: 20 μl reactions in 0.5 ml centrifugal tube contain 2 mM dTDP-D-Glco, 3 mM NADPH, 50 mM Tris-HCl buffer (pH7.4), 5 mM divalent ion chloride and 0.25 μM recombinant dTDP-D-GIcO reductase protein purified in example 2. The reactions are proceeded at certain temperatures for 2 hours. Then add chloroform of equal volume to extract protein. The aqueous phase is detected by Beckman Coulter P/ACE MDQ capillary electrophoresis.

[2] = biological target: T1, Fcf2 (recombinant dTDP-D-Glcfucofuranose mutase) (Escherichia coli, UniProt Q6E7F1); assay: Divalent cation requirements of Fcf2 (effects of cations on enzyme activity); assay type: biochemical, E. coli O52; details: for Transformation rate (%): in the presence of 5 mM divalent ion, 9.5 without ion
T1 construct: The entire ORF encodes a protein composed of 377 amino acids; His6 (N); made in house; host or cells: E. coli BL21
Procedure: 25 μl reactions in 0.5 ml centrifugal tube contain 2 mM dTDP-D-fucose, 50 mM Tris-HCl buffer (pH 7.4) 5 mM divalent ion chloride and 3.9 μM recombinant dTDP-D-Glcfucofuranose mutase protein purified in example 2. The reactions are proceeded at certain temperature for 3 hours. Then add chloroform of equal volume to extract protein. The aqueous phase is detected by Beckman Coulter P/ACE MDQ capillary electrophoresis.

T1 sequence (Q6E7F1 whole entry): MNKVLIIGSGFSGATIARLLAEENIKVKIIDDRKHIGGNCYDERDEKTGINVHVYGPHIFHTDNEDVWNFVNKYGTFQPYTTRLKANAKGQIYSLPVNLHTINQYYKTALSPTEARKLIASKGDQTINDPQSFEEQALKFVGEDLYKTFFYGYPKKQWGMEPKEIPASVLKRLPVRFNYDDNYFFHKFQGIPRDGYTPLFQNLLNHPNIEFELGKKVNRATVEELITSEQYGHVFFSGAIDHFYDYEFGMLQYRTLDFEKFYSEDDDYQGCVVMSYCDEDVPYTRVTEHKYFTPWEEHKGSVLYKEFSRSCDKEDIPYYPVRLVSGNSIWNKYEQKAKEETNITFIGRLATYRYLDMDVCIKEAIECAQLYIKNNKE

| SMILES | Transformation rate (%) [1] | Transformation rate (%) [2] | influence on conversion ratio / inhibition to enzyme activity [1] | inhibition to enzyme activity ([2]; 5 mM divalent ion) |
| --- | --- | --- | --- | --- |
| [Ca+2].[Cl-].[Cl-] [Ca^2+, CaCl2] | 98.1% | 9.6% |  |  |
| [Cl-].[Cl-].[Co+2] [Co^2+, CoCl2] | 89.2% | 8.8% |  |  |
| [Cl][Cu][Cl] [Cu^2+, CuCl2] | 11.8% | 0% | highest inhibition | obvious inhibition |
| [Cl][Fe][Cl] [Fe^2+, FeCl2] | 90.5% | 9.1% |  |  |
| [Cl-].[Cl-].[Mg+2] [Mg^2+, MgCl2] | 100% | 9.7% | no influence |  |
| [Cl][Mn][Cl] [Mn^2+, MnCl2] | 100% | 5.4% | no influence |  |
